Laboratory results as given in patent US10131652B2, “Pyrimidinyloxy benzene derivatives as herbicides” (E. I. DU PONT DE NEMOURS AND COMPANY, priority 2014, dated 2018).
Like-named read-outs stand apart in the source and are kept apart here.

Assays:
Assay in all cases: Test D pre-/postemergence plant response
Assay type in all cases: in vivo
[1] = system: morningglory (Ipomoea coccinea); conditions: Ipomoea; for pest or weed control at 31 g/ha: 31 g ai/ha; for pest or weed control at 62 g/ha: 62 g ai/ha; for pest or weed control at 125 g/ha: 125 g ai/ha; for pest or weed control at 250 g/ha: 250 g ai/ha
Procedure, shortened: (§1)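 Plants are held in a greenhouse 13 to 15 days after spraying, then injury is rated by eye relative to controls on a 0 to 100 scale. Treatments are preemergence on freshly sown loam/sand pots or postemergence at 1- to 4-leaf stage in peat-based medium; surfactant-containing solvent formulation.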

[2] = system: oilseed rape (Brassica napus); conditions: Brassica napus; for plant injury at 31 g/ha: 31 g ai/ha; for plant injury at 62 g/ha: 62 g ai/ha; for plant injury at 125 g/ha: 125 g ai/ha; for plant injury at 250 g/ha: 250 g ai/ha
Procedure, shortened: as §1

[3] = system: pigweed (Amaranthus retroflexus); conditions: Amaranthus retroflexus; for pest or weed control at 31 g/ha: 31 g ai/ha; for pest or weed control at 62 g/ha: 62 g ai/ha; for pest or weed control at 125 g/ha: 125 g ai/ha; for pest or weed control at 250 g/ha: 250 g ai/ha
Procedure, shortened: as §1

[4] = system: ragweed (common ragweed, Ambrosia elatior); conditions: Ambrosia artemisiifolia; for pest or weed control at 31 g/ha: 31 g ai/ha; for pest or weed control at 62 g/ha: 62 g ai/ha; for pest or weed control at 125 g/ha: 125 g ai/ha; for pest or weed control at 250 g/ha: 250 g ai/ha
Procedure, shortened: as §1

soybean (Glycine max) = conditions: Glycine max; for plant injury at 31 g/ha: 31 g ai/ha; for plant injury at 62 g/ha: 62 g ai/ha; for plant injury at 125 g/ha: 125 g ai/ha; for plant injury at 250 g/ha: 250 g ai/ha
Procedure, shortened: as §1

[5] = system: velvetleaf (Abutilon theophrasti); conditions: Abutilon theophrasti; for pest or weed control at 31 g/ha: 31 g ai/ha; for pest or weed control at 62 g/ha: 62 g ai/ha; for pest or weed control at 125 g/ha: 125 g ai/ha; for pest or weed control at 250 g/ha: 250 g ai/ha
Procedure, shortened: as §1

[6] = system: waterhemp (common waterhemp, Amaranthus rudis); conditions: Amaranthus tuberculatus; for pest or weed control at 31 g/ha: 31 g ai/ha; for pest or weed control at 62 g/ha: 62 g ai/ha; for pest or weed control at 125 g/ha: 125 g ai/ha; for pest or weed control at 250 g/ha: 250 g ai/ha
Procedure, shortened: as §1

[7] = system: winter wheat (Triticum aestivum); conditions: Triticum aestivum; for plant injury at 31 g/ha: 31 g ai/ha; for plant injury at 62 g/ha: 62 g ai/ha; for plant injury at 125 g/ha: 125 g ai/ha; for plant injury at 250 g/ha: 250 g ai/ha
Procedure, shortened: as §1

[8] = system: yellow nutsedge (Cyperus esculentus); conditions: Cyperus; for pest or weed control at 31 g/ha: 31 g ai/ha; for pest or weed control at 62 g/ha: 62 g ai/ha; for pest or weed control at 125 g/ha: 125 g ai/ha; for pest or weed control at 250 g/ha: 250 g ai/ha
Procedure, shortened: as §1

[9] = post-emergence, Postemergence, scale 0 to 100, 0 no effect, 100 complete control, read-out: Plant response rating, Morningglory
[10] = pre-emergence, Preemergence, read-out: Plant response rating (scale 0 to 100), Morningglory
[11] = pre-emergence, Preemergence, scale 0 to 100 (0 no effect, 100 complete control), read-out: Plant response rating, Morningglory
[12] = post-emergence, Postemergence, scale 0 to 100, 0 no effect, 100 complete control, read-out: Plant response rating, Oilseed Rape
[13] = pre-emergence, Preemergence, read-out: Plant response rating (scale 0 to 100), Oilseed Rape
[14] = pre-emergence, Preemergence, scale 0 to 100 (0 no effect, 100 complete control), read-out: Plant response rating, Oilseed Rape
[15] = post-emergence, Postemergence, scale 0 to 100, 0 no effect, 100 complete control, read-out: Plant response rating, Pigweed
[16] = pre-emergence, Preemergence, read-out: Plant response rating (scale 0 to 100), Pigweed
[17] = pre-emergence, Preemergence, scale 0 to 100 (0 no effect, 100 complete control), read-out: Plant response rating, Pigweed
[18] = post-emergence, Postemergence, scale 0 to 100, 0 no effect, 100 complete control, read-out: Plant response rating, Ragweed
[19] = pre-emergence, Preemergence, read-out: Plant response rating (scale 0 to 100), Ragweed
[20] = pre-emergence, Preemergence, scale 0 to 100 (0 no effect, 100 complete control), read-out: Plant response rating, Ragweed
[21] = post-emergence, Postemergence, scale 0 to 100, 0 no effect, 100 complete control, read-out: Plant response rating, Soybean
[22] = pre-emergence, Preemergence, read-out: Plant response rating (scale 0 to 100), Soybean
[23] = pre-emergence, Preemergence, scale 0 to 100 (0 no effect, 100 complete control), read-out: Plant response rating, Soybean
[24] = post-emergence, Postemergence, scale 0 to 100, 0 no effect, 100 complete control, read-out: Plant response rating, Velvetleaf
[25] = pre-emergence, Preemergence, read-out: Plant response rating (scale 0 to 100), Velvetleaf
[26] = pre-emergence, Preemergence, scale 0 to 100 (0 no effect, 100 complete control), read-out: Plant response rating, Velvetleaf
[27] = post-emergence, Postemergence, scale 0 to 100, 0 no effect, 100 complete control, read-out: Plant response rating, Waterhemp
[28] = pre-emergence, Preemergence, read-out: Plant response rating (scale 0 to 100), Waterhemp
[29] = pre-emergence, Preemergence, scale 0 to 100 (0 no effect, 100 complete control), read-out: Plant response rating, Waterhemp
[30] = post-emergence, Postemergence, scale 0 to 100, 0 no effect, 100 complete control, read-out: Plant response rating, Wheat
[31] = pre-emergence, Preemergence, read-out: Plant response rating (scale 0 to 100), Wheat
[32] = pre-emergence, Preemergence, scale 0 to 100 (0 no effect, 100 complete control), read-out: Plant response rating, Wheat
[33] = post-emergence, Postemergence, scale 0 to 100, 0 no effect, 100 complete control, read-out: Plant response rating, Nutsedge, Yellow
[34] = pre-emergence, Preemergence, read-out: Plant response rating (scale 0 to 100), Nutsedge, Yellow
[35] = pre-emergence, Preemergence, scale 0 to 100 (0 no effect, 100 complete control), read-out: Plant response rating, Nutsedge, Yellow

SMILES: FC(F)c1cc(-c2ccccc2Oc2ncc(Br)cn2)no1 [Compound 62, 5-bromo-2-[2-[5-(difluoromethyl)-3-isoxazolyl]phenoxy]pyrimidine]
- pest or weed control at 31 g/ha ([1]; post-emergence, Postemergence, scale 0 to 100 (0 no effect, 100 complete control), read-out: Morningglory plant response rating): 85%
- pest or weed control at 62 g/ha [1, 9]: 95%
- pest or weed control at 125 g/ha [1, 9]: 95%
- pest or weed control at 250 g/ha [1, 9]: 98%
- pest or weed control at 125 g/ha [1, 10]: 98%
- pest or weed control at 250 g/ha [1, 10]: 100%
- pest or weed control at 31 g/ha [1, 11]: 25%
- pest or weed control at 62 g/ha [1, 11]: 55%
- plant injury at 31 g/ha ([2]; post-emergence, Postemergence, scale 0 to 100 (0 no effect, 100 complete control), read-out: Oilseed Rape plant response rating): 80%
- plant injury at 62 g/ha [2, 12]: 90%
- plant injury at 125 g/ha [2, 12]: 98%
- plant injury at 250 g/ha [2, 12]: 100%
- plant injury at 125 g/ha [2, 13]: 100%
- plant injury at 250 g/ha [2, 13]: 100%
- plant injury at 31 g/ha [2, 14]: 100%
- plant injury at 62 g/ha [2, 14]: 98%
- pest or weed control at 31 g/ha ([3]; post-emergence, Postemergence, scale 0 to 100 (0 no effect, 100 complete control), read-out: Pigweed plant response rating): 98%
- pest or weed control at 62 g/ha [3, 15]: 100%
- pest or weed control at 125 g/ha [3, 15]: 100%
- pest or weed control at 250 g/ha [3, 15]: 100%
- pest or weed control at 125 g/ha [3, 16]: 100%
- pest or weed control at 250 g/ha [3, 16]: 100%
- pest or weed control at 31 g/ha [3, 17]: 100%
- pest or weed control at 62 g/ha [3, 17]: 100%
- pest or weed control at 31 g/ha ([4]; post-emergence, Postemergence, scale 0 to 100 (0 no effect, 100 complete control), read-out: Ragweed plant response rating): 65%
- pest or weed control at 62 g/ha [4, 18]: 60%
- pest or weed control at 125 g/ha [4, 18]: 65%
- pest or weed control at 250 g/ha [4, 18]: 85%
- pest or weed control at 125 g/ha [4, 19]: 75%
- pest or weed control at 250 g/ha [4, 19]: 85%
- pest or weed control at 31 g/ha [4, 20]: 0%
- pest or weed control at 62 g/ha [4, 20]: 65%
- plant injury at 31 g/ha (soybean (Glycine max); post-emergence, Postemergence, scale 0 to 100 (0 no effect, 100 complete control), read-out: Soybean plant response rating): 80%
- plant injury at 62 g/ha (soybean (Glycine max); [21]): 95%
- plant injury at 125 g/ha (soybean (Glycine max); [21]): 98%
- plant injury at 250 g/ha (soybean (Glycine max); [21]): 98%
- plant injury at 125 g/ha (soybean (Glycine max); [22]): 85%
- plant injury at 250 g/ha (soybean (Glycine max); [22]): 95%
- plant injury at 31 g/ha (soybean (Glycine max); [23]): 60%
- plant injury at 62 g/ha (soybean (Glycine max); [23]): 70%
- pest or weed control at 31 g/ha ([5]; post-emergence, Postemergence, scale 0 to 100 (0 no effect, 100 complete control), read-out: Velvetleaf plant response rating): 60%
- pest or weed control at 62 g/ha [5, 24]: 70%
- pest or weed control at 125 g/ha [5, 24]: 75%
- pest or weed control at 250 g/ha [5, 24]: 85%
- pest or weed control at 125 g/ha [5, 25]: 100%
- pest or weed control at 250 g/ha [5, 25]: 100%
- pest or weed control at 31 g/ha [5, 26]: 90%
- pest or weed control at 62 g/ha [5, 26]: 100%
- pest or weed control at 31 g/ha ([6]; post-emergence, Postemergence, scale 0 to 100 (0 no effect, 100 complete control), read-out: Waterhemp plant response rating): 98%
- pest or weed control at 62 g/ha [6, 27]: 98%
- pest or weed control at 125 g/ha [6, 27]: 98%
- pest or weed control at 250 g/ha [6, 27]: 100%
- pest or weed control at 125 g/ha [6, 28]: 100%
- pest or weed control at 250 g/ha [6, 28]: 100%
- pest or weed control at 31 g/ha [6, 29]: 100%
- pest or weed control at 62 g/ha [6, 29]: 100%
- plant injury at 31 g/ha ([7]; post-emergence, Postemergence, scale 0 to 100 (0 no effect, 100 complete control), read-out: Wheat plant response rating): 30%
- plant injury at 62 g/ha [7, 30]: 20%
- plant injury at 125 g/ha [7, 30]: 10%
- plant injury at 250 g/ha [7, 30]: 40%
- plant injury at 125 g/ha [7, 31]: 40%
- plant injury at 250 g/ha [7, 31]: 50%
- plant injury at 31 g/ha [7, 32]: 0%
- plant injury at 62 g/ha [7, 32]: 10%
- pest or weed control at 31 g/ha ([8]; post-emergence, Postemergence, scale 0 to 100 (0 no effect, 100 complete control), read-out: Nutsedge, Yellow plant response rating): 5%
- pest or weed control at 62 g/ha [8, 33]: 5%
- pest or weed control at 125 g/ha [8, 33]: 5%
- pest or weed control at 250 g/ha [8, 33]: 10%
- pest or weed control at 125 g/ha [8, 34]: 10%
- pest or weed control at 250 g/ha [8, 34]: 60%
- pest or weed control at 31 g/ha [8, 35]: 0%
- pest or weed control at 62 g/ha [8, 35]: 5%
